Test results published in PubChem BioAssay AID1963840 (Molecular Pharmacology Branch, DTP, NCI, 2024).

Tested on: 695427-040-R-J1-PDC complex spheroid viability
Assay: Anticancer human tumor 695427-040-R-J1-PDC patient-derived colon adenocarcinoma cell line growth inhibition [POLQ]
Details: for IC50: curve of first compound; for viability, T/C: stronger effect = lower value
Procedure, shortened: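 Complex spheroid viability model combining PDC tumour cells with endothelial (HUVEC) and MSC stromal cells. Novobiocin, ART-558 or RP6685 were tested singly and in combination with standard and investigational anticancer drugs. Each was titrated in half-log steps from near clinical Cmax, or from 10 microM where Cmax was unknown.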

[1] = second compound 0.0316 µM, first compound 0.0316 µM
[2] = second compound 0.0316 µM, first compound 0.1 µM
[3] = second compound 0.0316 µM, first compound 0.316 µM
[4] = second compound 0.0316 µM, first compound 1 µM
[5] = second compound 0.0316 µM, first compound 3.16 µM
[6] = second compound 0.0316 µM, first compound 10 µM
[7] = second compound 0.1 µM, first compound 0.0316 µM
[8] = second compound 0.1 µM, first compound 0.1 µM
[9] = second compound 0.1 µM, first compound 0.316 µM
[10] = second compound 0.1 µM, first compound 1 µM
[11] = second compound 0.1 µM, first compound 3.16 µM
[12] = second compound 0.1 µM, first compound 10 µM
[13] = second compound 0.316 µM, first compound 0.0316 µM
[14] = second compound 0.316 µM, first compound 0.1 µM
[15] = second compound 0.316 µM, first compound 0.316 µM
[16] = second compound 0.316 µM, first compound 1 µM
[17] = second compound 0.316 µM, first compound 3.16 µM
[18] = second compound 0.316 µM, first compound 10 µM
[19] = second compound 1 µM, first compound 0.0316 µM
[20] = second compound 1 µM, first compound 0.1 µM
[21] = second compound 1 µM, first compound 0.316 µM
[22] = second compound 1 µM, first compound 1 µM
[23] = second compound 1 µM, first compound 3.16 µM
[24] = second compound 1 µM, first compound 10 µM
[25] = second compound 3.16 µM, first compound 0.0316 µM
[26] = second compound 3.16 µM, first compound 0.1 µM
[27] = second compound 3.16 µM, first compound 0.316 µM
[28] = second compound 3.16 µM, first compound 1 µM
[29] = second compound 3.16 µM, first compound 3.16 µM
[30] = second compound 3.16 µM, first compound 10 µM
[31] = second compound 10 µM, first compound 0.0316 µM
[32] = second compound 10 µM, first compound 0.1 µM
[33] = second compound 10 µM, first compound 0.316 µM
[34] = second compound 10 µM, first compound 1 µM
[35] = second compound 10 µM, first compound 3.16 µM
[36] = second compound 10 µM, first compound 10 µM
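Also: spheroids exposed to compounds for seven days.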
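For viability, T/C in this document: 100% = DMSO vehicle control viability.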

In the case of `CC(=O)O[C@H]1C(=O)[C@@]2(C)[C@H]([C@H](OC(=O)c3ccccc3)[C@]3(O)C[C@H](OC(=O)[C@H](O)[C@@H](NC(=O)c4ccccc4)c4ccccc4)C(C)=C1C3(C)C)[C@]1(OC(C)=O)CO[C@@H]1C[C@@H]2O` + Cc1cccc(N(C)C(=O)C2C(O)CCN2c2nc(C)cc(C(F)(F)F)c2C#N)c1, the IC50 (second compound 0.0316 µM) is reported as > 3 µM, the IC50 (second compound 0.1 µM) is reported as > 3 µM and the IC50 (second compound 0.316 µM) is reported as > 3 µM. For the same compound, the IC50 (second compound 1 µM) was > 3 µM, the IC50 (second compound 3.16 µM) was > 3 µM and the IC50 (second compound 10 µM) was > 3 µM. The viability, T/C (second compound 0.0316 µM, first compound 0.00949 µM) was 96.5%, the viability, T/C (second compound 0.0316 µM, first compound 0.03 µM) was 102% and the viability, T/C (second compound 0.0316 µM, first compound 0.0949 µM) was 96.3%. The viability, T/C (second compound 0.0316 µM, first compound 0.3 µM) was 98.9%, the viability, T/C (second compound 0.0316 µM, first compound 0.949 µM) was 94.7% and the viability, T/C (second compound 0.0316 µM, first compound 3 µM) was 77.9%. For the same compound, the viability, T/C (second compound 0.1 µM, first compound 0.00949 µM) was 112%, the viability, T/C (second compound 0.1 µM, first compound 0.03 µM) was 106% and the viability, T/C (second compound 0.1 µM, first compound 0.0949 µM) was 91.8%. For the same compound, the viability, T/C (second compound 0.1 µM, first compound 0.3 µM) was 95.3%, the viability, T/C (second compound 0.1 µM, first compound 0.949 µM) was 98.3% and the viability, T/C (second compound 0.1 µM, first compound 3 µM) was 79.7%. The viability, T/C (second compound 0.316 µM, first compound 0.00949 µM) was 111%, the viability, T/C (second compound 0.316 µM, first compound 0.03 µM) was 94.8% and the viability, T/C (second compound 0.316 µM, first compound 0.0949 µM) was 95%. For the same compound, the viability, T/C (second compound 0.316 µM, first compound 0.3 µM) was 89.5%, the viability, T/C (second compound 0.316 µM, first compound 0.949 µM) was 104% and the viability, T/C (second compound 0.316 µM, first compound 3 µM) was 78.7%. For the same compound, the viability, T/C (second compound 1 µM, first compound 0.00949 µM) was 102%, the viability, T/C (second compound 1 µM, first compound 0.03 µM) was 93.3% and the viability, T/C (second compound 1 µM, first compound 0.0949 µM) was 91.9%. It also gave a viability, T/C (second compound 1 µM, first compound 0.3 µM) of 98.3%, a viability, T/C (second compound 1 µM, first compound 0.949 µM) of 101% and a viability, T/C (second compound 1 µM, first compound 3 µM) of 73.1%. It also gave a viability, T/C (second compound 3.16 µM, first compound 0.00949 µM) of 97.4%, a viability, T/C (second compound 3.16 µM, first compound 0.03 µM) of 94.2% and a viability, T/C (second compound 3.16 µM, first compound 0.0949 µM) of 91.8%. It also gave a viability, T/C (second compound 3.16 µM, first compound 0.3 µM) of 88.8%, a viability, T/C (second compound 3.16 µM, first compound 0.949 µM) of 97% and a viability, T/C (second compound 3.16 µM, first compound 3 µM) of 80.6%. For the same compound, the viability, T/C (second compound 10 µM, first compound 0.00949 µM) was 91.3%, the viability, T/C (second compound 10 µM, first compound 0.03 µM) was 83.9% and the viability, T/C (second compound 10 µM, first compound 0.0949 µM) was 87.9%. The viability, T/C (second compound 10 µM, first compound 0.3 µM) was 85.1%, the viability, T/C (second compound 10 µM, first compound 0.949 µM) was 94.8% and the viability, T/C (second compound 10 µM, first compound 3 µM) was 84.2%.
For `COc1cc(C2c3cc4c(cc3C(OC3OC5COC(C)OC5C(O)C3O)C3COC(=O)C23)OCO4)cc(OC)c1O` (stereo unspecified) + Cc1cccc(N(C)C(=O)C2C(O)CCN2c2nc(C)cc(C(F)(F)F)c2C#N)c1, the IC50 (second compound 0.0316 µM) was > 10 µM, the IC50 (second compound 0.1 µM) was > 10 µM and the IC50 (second compound 0.316 µM) was > 10 µM. For the same compound, the IC50 (second compound 1 µM) was > 10 µM, the IC50 (second compound 3.16 µM) was > 10 µM and the IC50 (second compound 10 µM) was > 10 µM. The viability, T/C [1] was 104%, the viability, T/C [2] was 89.7% and the viability, T/C [3] was 107%. It also gave a viability, T/C [4] of 108%, a viability, T/C [5] of 92.3% and a viability, T/C [6] of 81.3%. The viability, T/C [7] was 96.4%, the viability, T/C [8] was 92.6% and the viability, T/C [9] was 102%. The viability, T/C [10] was 93.4%, the viability, T/C [11] was 96.1% and the viability, T/C [12] was 84.7%. For the same compound, the viability, T/C [13] was 95.7%, the viability, T/C [14] was 89.8% and the viability, T/C [15] was 102%. The viability, T/C [16] was 89.8%, the viability, T/C [17] was 93.2% and the viability, T/C [18] was 81.9%. It also gave a viability, T/C [19] of 96.2%, a viability, T/C [20] of 98.7% and a viability, T/C [21] of 89.9%. The viability, T/C [22] was 87.9%, the viability, T/C [23] was 91.9% and the viability, T/C [24] was 77.1%. The viability, T/C [25] was 92.8%, the viability, T/C [26] was 102% and the viability, T/C [27] was 93.4%. The viability, T/C [28] was 91.5%, the viability, T/C [29] was 89.6% and the viability, T/C [30] was 80.8%. It also gave a viability, T/C [31] of 98%, a viability, T/C [32] of 80.5% and a viability, T/C [33] of 90%. It also gave a viability, T/C [34] of 86.8%, a viability, T/C [35] of 84.3% and a viability, T/C [36] of 71.1%.
With `O=c1[nH]cc(F)c(=O)[nH]1` + Cc1cccc(N(C)C(=O)C2C(O)CCN2c2nc(C)cc(C(F)(F)F)c2C#N)c1 the IC50 (second compound 0.0316 µM) was > 10 µM, the IC50 (second compound 0.1 µM) was > 10 µM and the IC50 (second compound 0.316 µM) was > 10 µM. The IC50 (second compound 1 µM) was > 10 µM, the IC50 (second compound 3.16 µM) was > 10 µM and the IC50 (second compound 10 µM) was > 10 µM. The viability, T/C [1] was 105%, the viability, T/C [2] was 94.5% and the viability, T/C [3] was 95.2%. It also gave a viability, T/C [4] of 98.1%, a viability, T/C [5] of 106% and a viability, T/C [6] of 98.2%. The viability, T/C [7] was 106%, the viability, T/C [8] was 102% and the viability, T/C [9] was 102%. For the same compound, the viability, T/C [10] was 101%, the viability, T/C [11] was 109% and the viability, T/C [12] was 97%. The viability, T/C [13] was 112%, the viability, T/C [14] was 102% and the viability, T/C [15] was 99.1%. For the same compound, the viability, T/C [16] was 104%, the viability, T/C [17] was 101% and the viability, T/C [18] was 99.5%. The viability, T/C [19] was 105%, the viability, T/C [20] was 100% and the viability, T/C [21] was 108%. For the same compound, the viability, T/C [22] was 101%, the viability, T/C [23] was 93% and the viability, T/C [24] was 88.4%. The viability, T/C [25] was 96%, the viability, T/C [26] was 103% and the viability, T/C [27] was 101%. For the same compound, the viability, T/C [28] was 97.4%, the viability, T/C [29] was 101% and the viability, T/C [30] was 103%. It also gave a viability, T/C [31] of 90.6%, a viability, T/C [32] of 94.8% and a viability, T/C [33] of 87.5%. The viability, T/C [34] was 96.3%, the viability, T/C [35] was 92.8% and the viability, T/C [36] was 84.8%.
